Results from the supplement of paper PMC13380429.

Tests used:
Conditions in all cases: 72 h
Caco-2 [1] = assay: cell viability relative to DMSO; higher = less toxic
Calu-3 [2] = assay: as above
HepG2 [3] = assay: as above
U2OS [4] = assay: as above
Vero E6 [5] = assay: as above
Caco-2 [6] = assay: relative viability EC50 (midpoint between 100% and the lowest measured viability); higher = less toxic
Calu-3 [7] = assay: as above
HepG2 [8] = assay: as above
U2OS [9] = assay: as above
Vero E6 [10] = assay: as above
Caco-2 [11] = assay: drug sensitivity score (DSS) for viability; higher = more toxic; extreme values may be limits of the assay
Calu-3 [12] = assay: as above
HepG2 [13] = assay: as above
U2OS [14] = assay: as above
Vero E6 [15] = assay: as above

Cc1c(C(N)=O)cc([N+](=O)[O-])cc1[N+](=O)[O-] [dinitolmide]
cell viability (Caco-2 [1]; 1 nM): 101% | cell viability (Caco-2 [1]; 10 nM): 97.6% | cell viability (Caco-2 [1]; 100 nM): 102% | cell viability (Caco-2 [1]; 1000 nM): 95.1% | cell viability (Caco-2 [1]; 10000 nM): 105% | cell viability (Calu-3 [2]; 1 nM): 99.4% | cell viability (Calu-3 [2]; 10 nM): 105% | cell viability (Calu-3 [2]; 100 nM): 101% | cell viability (Calu-3 [2]; 1000 nM): 100% | cell viability (Calu-3 [2]; 10000 nM): 103% | cell viability (HepG2 [3]; 1 nM): 104% | cell viability (HepG2 [3]; 10 nM): 104% | cell viability (HepG2 [3]; 100 nM): 106% | cell viability (HepG2 [3]; 1000 nM): 99.7% | cell viability (HepG2 [3]; 10000 nM): 102% | cell viability (U2OS [4]; 1 nM): 111% | cell viability (U2OS [4]; 10 nM): 105% | cell viability (U2OS [4]; 100 nM): 105% | cell viability (U2OS [4]; 1000 nM): 93.5% | cell viability (U2OS [4]; 10000 nM): 92.3% | cell viability (Vero E6 [5]; 1 nM): 102% | cell viability (Vero E6 [5]; 10 nM): 101% | cell viability (Vero E6 [5]; 100 nM): 98.8% | cell viability (Vero E6 [5]; 1000 nM): 98.3% | cell viability (Vero E6 [5]; 10000 nM): 97.4% | relative viability EC50 (Caco-2 [6]): > 10 µM | relative viability EC50 (Calu-3 [7]): > 10 µM | relative viability EC50 (HepG2 [8]): > 10 µM | relative viability EC50 (U2OS [9]): > 10 µM | relative viability EC50 (Vero E6 [10]): > 10 µM | drug sensitivity score (Caco-2 [11]): 0 | drug sensitivity score (Calu-3 [12]): 0 | drug sensitivity score (HepG2 [13]): 0 | drug sensitivity score (U2OS [14]): 0 | drug sensitivity score (Vero E6 [15]): 0

Cn1c(=O)c2c(ncn2CC(O)CO)n(C)c1=O (stereo not given) [dyphylline]
cell viability (Caco-2 [1]; 1 nM): 104% | cell viability (Caco-2 [1]; 10 nM): 110% | cell viability (Caco-2 [1]; 100 nM): 104% | cell viability (Caco-2 [1]; 1000 nM): 98.9% | cell viability (Caco-2 [1]; 10000 nM): 107% | cell viability (Calu-3 [2]; 1 nM): 92.7% | cell viability (Calu-3 [2]; 10 nM): 99.6% | cell viability (Calu-3 [2]; 100 nM): 109% | cell viability (Calu-3 [2]; 1000 nM): 96.4% | cell viability (Calu-3 [2]; 10000 nM): 101% | cell viability (HepG2 [3]; 1 nM): 102% | cell viability (HepG2 [3]; 10 nM): 106% | cell viability (HepG2 [3]; 100 nM): 97.1% | cell viability (HepG2 [3]; 1000 nM): 107% | cell viability (HepG2 [3]; 10000 nM): 104% | cell viability (U2OS [4]; 1 nM): 107% | cell viability (U2OS [4]; 10 nM): 108% | cell viability (U2OS [4]; 100 nM): 105% | cell viability (U2OS [4]; 1000 nM): 98.8% | cell viability (U2OS [4]; 10000 nM): 110% | cell viability (Vero E6 [5]; 1 nM): 100% | cell viability (Vero E6 [5]; 10 nM): 102% | cell viability (Vero E6 [5]; 100 nM): 105% | cell viability (Vero E6 [5]; 1000 nM): 98.7% | cell viability (Vero E6 [5]; 10000 nM): 105% | relative viability EC50 (Caco-2 [6]): > 10 µM | relative viability EC50 (Calu-3 [7]): > 10 µM | relative viability EC50 (HepG2 [8]): > 10 µM | relative viability EC50 (U2OS [9]): > 10 µM | relative viability EC50 (Vero E6 [10]): > 10 µM | drug sensitivity score (Caco-2 [11]): 0 | drug sensitivity score (Calu-3 [12]): 0 | drug sensitivity score (HepG2 [13]): 0 | drug sensitivity score (U2OS [14]): 0 | drug sensitivity score (Vero E6 [15]): 0

COC(=O)CCc1ccc(OCC(O)CNC(C)C)cc1 (stereo not given) [esmolol]
cell viability (Caco-2 [1]; 1 nM): 102% | cell viability (Caco-2 [1]; 10 nM): 84.8% | cell viability (Caco-2 [1]; 100 nM): 98.5% | cell viability (Caco-2 [1]; 1000 nM): 95.5% | cell viability (Caco-2 [1]; 10000 nM): 97.8% | cell viability (Calu-3 [2]; 1 nM): 111% | cell viability (Calu-3 [2]; 10 nM): 99.8% | cell viability (Calu-3 [2]; 100 nM): 96.9% | cell viability (Calu-3 [2]; 1000 nM): 105% | cell viability (Calu-3 [2]; 10000 nM): 102% | cell viability (HepG2 [3]; 1 nM): 110% | cell viability (HepG2 [3]; 10 nM): 102% | cell viability (HepG2 [3]; 100 nM): 94.5% | cell viability (HepG2 [3]; 1000 nM): 109% | cell viability (HepG2 [3]; 10000 nM): 96.5% | cell viability (U2OS [4]; 1 nM): 101% | cell viability (U2OS [4]; 10 nM): 95% | cell viability (U2OS [4]; 100 nM): 94.6% | cell viability (U2OS [4]; 1000 nM): 94.1% | cell viability (U2OS [4]; 10000 nM): 99% | cell viability (Vero E6 [5]; 1 nM): 97.2% | cell viability (Vero E6 [5]; 10 nM): 93.1% | cell viability (Vero E6 [5]; 100 nM): 95.5% | cell viability (Vero E6 [5]; 1000 nM): 100% | cell viability (Vero E6 [5]; 10000 nM): 95.5% | relative viability EC50 (Caco-2 [6]): > 10 µM | relative viability EC50 (Calu-3 [7]): > 10 µM | relative viability EC50 (HepG2 [8]): > 10 µM | relative viability EC50 (U2OS [9]): > 10 µM | relative viability EC50 (Vero E6 [10]): > 10 µM | drug sensitivity score (Caco-2 [11]): 0 | drug sensitivity score (Calu-3 [12]): 0 | drug sensitivity score (HepG2 [13]): 0 | drug sensitivity score (U2OS [14]): 0 | drug sensitivity score (Vero E6 [15]): 0

CC(Cc1ccc(O)cc1)NCC(O)c1cc(O)cc(O)c1 (stereo not given) [fenoterol]
cell viability (Caco-2 [1]; 1 nM): 124% | cell viability (Caco-2 [1]; 10 nM): 99.3% | cell viability (Caco-2 [1]; 100 nM): 103% | cell viability (Caco-2 [1]; 1000 nM): 92.4% | cell viability (Caco-2 [1]; 10000 nM): 111% | cell viability (Calu-3 [2]; 1 nM): 103% | cell viability (Calu-3 [2]; 10 nM): 114% | cell viability (Calu-3 [2]; 100 nM): 105% | cell viability (Calu-3 [2]; 1000 nM): 95.9% | cell viability (Calu-3 [2]; 10000 nM): 103% | cell viability (HepG2 [3]; 1 nM): 84.4% | cell viability (HepG2 [3]; 10 nM): 92.7% | cell viability (HepG2 [3]; 100 nM): 94% | cell viability (HepG2 [3]; 1000 nM): 93.8% | cell viability (HepG2 [3]; 10000 nM): 82.9% | cell viability (U2OS [4]; 1 nM): 101% | cell viability (U2OS [4]; 10 nM): 95.1% | cell viability (U2OS [4]; 100 nM): 96.4% | cell viability (U2OS [4]; 1000 nM): 98.5% | cell viability (U2OS [4]; 10000 nM): 98.4% | cell viability (Vero E6 [5]; 1 nM): 97.6% | cell viability (Vero E6 [5]; 10 nM): 108% | cell viability (Vero E6 [5]; 100 nM): 96.7% | cell viability (Vero E6 [5]; 1000 nM): 103% | cell viability (Vero E6 [5]; 10000 nM): 92.1% | relative viability EC50 (Caco-2 [6]): > 10 µM | relative viability EC50 (Calu-3 [7]): > 10 µM | relative viability EC50 (HepG2 [8]): > 10 µM | relative viability EC50 (U2OS [9]): > 10 µM | relative viability EC50 (Vero E6 [10]): > 10 µM | drug sensitivity score (Caco-2 [11]): 0 | drug sensitivity score (Calu-3 [12]): 0 | drug sensitivity score (HepG2 [13]): 0 | drug sensitivity score (U2OS [14]): 0 | drug sensitivity score (Vero E6 [15]): 0

CC(C)C(=O)Oc1ccc(CO)cc1[C@H](CCN(C(C)C)C(C)C)c1ccccc1 [fesoterodine]
cell viability (Caco-2 [1]; 1 nM): 91.6% | cell viability (Caco-2 [1]; 10 nM): 99.1% | cell viability (Caco-2 [1]; 100 nM): 103% | cell viability (Caco-2 [1]; 1000 nM): 98.8% | cell viability (Caco-2 [1]; 10000 nM): 96.5% | cell viability (Calu-3 [2]; 1 nM): 102% | cell viability (Calu-3 [2]; 10 nM): 97.3% | cell viability (Calu-3 [2]; 100 nM): 90.2% | cell viability (Calu-3 [2]; 1000 nM): 100% | cell viability (Calu-3 [2]; 10000 nM): 104% | cell viability (HepG2 [3]; 1 nM): 101% | cell viability (HepG2 [3]; 10 nM): 104% | cell viability (HepG2 [3]; 100 nM): 83.7% | cell viability (HepG2 [3]; 1000 nM): 90.9% | cell viability (HepG2 [3]; 10000 nM): 90.7% | cell viability (U2OS [4]; 1 nM): 105% | cell viability (U2OS [4]; 10 nM): 95.8% | cell viability (U2OS [4]; 100 nM): 98.2% | cell viability (U2OS [4]; 1000 nM): 99.8% | cell viability (U2OS [4]; 10000 nM): 100% | cell viability (Vero E6 [5]; 1 nM): 100% | cell viability (Vero E6 [5]; 10 nM): 99.9% | cell viability (Vero E6 [5]; 100 nM): 99.2% | cell viability (Vero E6 [5]; 1000 nM): 104% | cell viability (Vero E6 [5]; 10000 nM): 92.6% | relative viability EC50 (Caco-2 [6]): > 10 µM | relative viability EC50 (Calu-3 [7]): > 10 µM | relative viability EC50 (HepG2 [8]): > 10 µM | relative viability EC50 (U2OS [9]): > 10 µM | relative viability EC50 (Vero E6 [10]): > 10 µM | drug sensitivity score (Caco-2 [11]): 0 | drug sensitivity score (Calu-3 [12]): 0 | drug sensitivity score (HepG2 [13]): 3 | drug sensitivity score (U2OS [14]): 0 | drug sensitivity score (Vero E6 [15]): 0

O=C(NCC1CCCCN1)c1cc(OCC(F)(F)F)ccc1OCC(F)(F)F (stereo not given) [flecainide]
cell viability (Caco-2 [1]; 1 nM): 94.1% | cell viability (Caco-2 [1]; 10 nM): 89.9% | cell viability (Caco-2 [1]; 100 nM): 94.5% | cell viability (Caco-2 [1]; 1000 nM): 86% | cell viability (Caco-2 [1]; 10000 nM): 104% | cell viability (Calu-3 [2]; 1 nM): 108% | cell viability (Calu-3 [2]; 10 nM): 100% | cell viability (Calu-3 [2]; 100 nM): 97.5% | cell viability (Calu-3 [2]; 1000 nM): 101% | cell viability (Calu-3 [2]; 10000 nM): 101% | cell viability (HepG2 [3]; 1 nM): 96.5% | cell viability (HepG2 [3]; 10 nM): 103% | cell viability (HepG2 [3]; 100 nM): 93.3% | cell viability (HepG2 [3]; 1000 nM): 94.9% | cell viability (HepG2 [3]; 10000 nM): 106% | cell viability (U2OS [4]; 1 nM): 98.8% | cell viability (U2OS [4]; 10 nM): 97.2% | cell viability (U2OS [4]; 100 nM): 103% | cell viability (U2OS [4]; 1000 nM): 100% | cell viability (U2OS [4]; 10000 nM): 97.6% | cell viability (Vero E6 [5]; 1 nM): 90% | cell viability (Vero E6 [5]; 10 nM): 99.6% | cell viability (Vero E6 [5]; 100 nM): 90.1% | cell viability (Vero E6 [5]; 1000 nM): 93.8% | cell viability (Vero E6 [5]; 10000 nM): 99.1% | relative viability EC50 (Caco-2 [6]): > 10 µM | relative viability EC50 (Calu-3 [7]): > 10 µM | relative viability EC50 (HepG2 [8]): > 10 µM | relative viability EC50 (U2OS [9]): > 10 µM | relative viability EC50 (Vero E6 [10]): > 10 µM | drug sensitivity score (Caco-2 [11]): 0 | drug sensitivity score (Calu-3 [12]): 0 | drug sensitivity score (HepG2 [13]): 0 | drug sensitivity score (U2OS [14]): 0 | drug sensitivity score (Vero E6 [15]): 0
